Reference: US8883963B2 (Cadila Healthcare Limited, priority 2007, dated 2014)
Starred links: 1 amine or outer side, 2 acyl side, 3 side chain; linkers in the order of their positions; H or OH if unused. Non-standard residues stand in square brackets, D forms with d. Residues, ends and D or L forms follow the SMILES beside them. ξ: configuration not given here. *: point of attachment. X9 = CCc1cc(OC)ccc1-c1ccc(CC(NC(=S)[C@H](CC(=O)O)N*)C(=S)NC(CCCc2ccccc2F)C(N)=O)cc1; ξNMeBip(2'-Et,4'-OMe) = CCc1cc(OC)ccc1-c1ccc(CC(NC)C(=O)O)cc1; ξBip(2'-Et-4'-OMe) = CCc1cc(OC)ccc1-c1ccc(CC(N)C(=O)O)cc1; X6 = O=C(C(CCCc1ccc(Cl)cc1Cl)N[*:1])[*:2]; X11 = CN(C(CCCc1ccccc1)C(=O)[*:2])[*:1]; ξαMePhe(2-F) = CC(N)(Cc1ccccc1F)C(=O)O; NMeD = CN[C@@H](CC(=O)O)C(=O)O; aThr = C[C@H](O)[C@H](N)C(=O)O; ξhhPhe = NC(CCCc1ccccc1)C(=O)O; ξαMeP = CC1(C(=O)O)CCCN1; Aib = CC(C)(N)C(=O)O; Moc = COC(=O)*

Target: T1, human glucagon receptor (Homo sapiens, UniProt P47871)
T1 construct: The full-length cDNA was cloned in pcDNA3.1 (Invitrogen); expressed in transfected cells
Assay: In vitro human glucagon antagonist activity (inhibition of cAMP production) in CHO/human glucagon R cells
Assay type: cell-based
Conditions: with saturated concentration of glucagon peptide
Description: The CHO-K1 cells (CRL 9618) were obtained from American Type Culture Collection (Rockville, Md.). CHO cells were grown in Ham's F12 medium containing L-Glutamine (2 mM), HEPES (25 mM), NaHCO3 (1.1 g/L) and supplemented with newborn Calf Serum (NBCS; 10%), Penicillin (50 U/ml (v/v)) and Streptomycin (50 ug/ml (v/v)). Cells were split every 3 days 1:8.
The full-length cDNA was cloned in pcDNA3.1 (Invitrogen). […] Clones expressing the receptor were generated by G418 (800 μg/ml active, Sigma) selection. The stable clones were thereafter maintained at 500 ug/ml (G418). The selected clone was used between passages 9-25 for cAMP assays.
The cells were trypsinized using 2 ml of TPVG (0.25% trypsin, 0.53 mM EDTA, 1.38-mM glucose). The trypsin was inactivated using Ham's F12 medium containing 10% NBCS and the cells were suspended in 2 ml of complete medium. […] The medium was aspirated off from the 12 well plate and the cells were washed once using Ham's F12 (plain). The cells were incubated at 37° C. with 500 ul of Ham's F12+1% BSA+0.125 mM RO-20 for 30 min. […] After the incubation, the medium was removed and cells were washed once with plain Ham's F12. Subsequently, the cells were lysed by adding 500 ul of ice cold 0.1 N HCl to each well and shaking for 30 minutes at 200 rpm. The cells were then scrapped, the lysate was collected in micro centrifuge tubes and centrifuged at 12000 rpm for 10 min to remove the debris. 300 ul of supernatant from each micro-centrifuge tube was then removed into a glass tube and dried under N2 for 30 min, for cAMP estimation. The total cAMP was estimated from the sample according to the manufacturer's protocol using Cyclic AMP immunoassay kit (R&D systems, Minneapolis. MN). The remaining supernatant is used to determine the protein concentration using micro BCA (Sigma). Data is calculated as percent of control (Vehicle: water) and expressed as Mean+SD.

T1 sequence (P47871 26-477): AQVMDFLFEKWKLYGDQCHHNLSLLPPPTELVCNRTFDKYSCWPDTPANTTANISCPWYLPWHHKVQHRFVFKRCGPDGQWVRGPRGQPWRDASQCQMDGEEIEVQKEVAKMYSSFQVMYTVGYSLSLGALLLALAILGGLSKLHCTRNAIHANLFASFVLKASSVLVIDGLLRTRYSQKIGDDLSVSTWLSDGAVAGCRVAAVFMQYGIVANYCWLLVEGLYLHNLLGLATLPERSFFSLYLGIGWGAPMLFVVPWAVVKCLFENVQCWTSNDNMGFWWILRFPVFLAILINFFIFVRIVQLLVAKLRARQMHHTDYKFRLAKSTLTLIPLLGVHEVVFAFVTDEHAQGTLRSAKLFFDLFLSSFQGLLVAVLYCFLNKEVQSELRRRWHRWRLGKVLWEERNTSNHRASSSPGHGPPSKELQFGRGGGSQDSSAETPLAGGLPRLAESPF

SMILES	Human Glucagon receptor antagonistic activity shown as inhibition of cAMP production of Glucagon peptide (1 nM test compound) [pmol/ml/μg prt]	Human Glucagon receptor antagonistic activity shown as inhibition of cAMP production of Glucagon peptide (10 nM test compound) [pmol/ml/μg prt]	Human Glucagon receptor antagonistic activity shown as inhibition of cAMP production of Glucagon peptide (100 nM test compound) [pmol/ml/μg prt]	Human Glucagon receptor antagonistic activity shown as inhibition of cAMP production of Glucagon peptide (1 μM test compound) [pmol/ml/μg prt]	Human Glucagon receptor antagonistic activity shown as inhibition of cAMP production of Glucagon peptide (10 μM test compound) [pmol/ml/μg prt]
CCc1cc(OC)ccc1-c1ccc(CC(NC(=O)[C@H](CC(=O)O)NC(=O)[C@H](CO)NC(=O)[C@@H](NC(=O)[C@H](Cc2ccccc2)NC(=O)[C@@H](NC(=O)CNC(=O)[C@H](CCC(N)=O)NC(=O)[C@H](CO)NC(=O)[C@@H](N)Cc2c[nH]cn2)[C@@H](C)O)[C@@H](C)O)C(=O)NC(CCCc2ccccc2)C(N)=O)cc1 (single isomer, unassigned) [compound 5]	6 ± 0.02	5 ± 0.04	3 ± 0.14	0	0
CCc1cc(OC)ccc1-c1ccc(CC(NC(=O)[C@H](CC(=O)O)NC(=O)[C@H](CO)NC(=O)[C@@H](NC(=O)[C@H](Cc2ccccc2)NC(=O)[C@@H](NC(=O)CNC(=O)[C@H](CCC(N)=O)NC(=O)C2(C)CCCN2C(=O)[C@@H](N)Cc2c[nH]cn2)[C@@H](C)O)[C@@H](C)O)C(=O)NC(CCCc2cccc(Cl)c2)C(N)=O)cc1 (single isomer, unassigned) [compound 11]	3 ± 0.04	0	0	0	0
CCc1cc(OC)ccc1-c1ccc(CC(NC(=O)[C@H](CC(=O)O)NC(=O)[C@H](CO)NC(=O)[C@@H](NC(=O)[C@H](Cc2ccccc2)NC(=O)[C@@H](NC(=O)CNC(=O)[C@H](CCC(N)=O)NC(=O)C2(NC(=O)[C@@H](N)Cc3c[nH]cn3)CCCC2)[C@@H](C)O)[C@@H](C)O)C(=O)NC(CCCc2ccc(Cl)cc2C)C(N)=O)cc1 (single isomer, unassigned) [compound 28]	14 ± 0.02	11 ± 0.03	7 ± 0.22	3 ± 0.12	0
CCc1cc(OC)ccc1-c1ccc(CC(NC(=S)[C@H](CC(=O)O)NC(=O)[C@H](CO)NC(=O)[C@@H](NC(=O)C(C)(Cc2ccccc2F)NC(=O)[C@@H](NC(=O)CNC(=O)[C@H](CCC(N)=O)NC(=O)C(C)(C)NC(=O)[C@H](Cc2c[nH]cn2)NC(=O)OC)[C@@H](C)O)[C@@H](C)O)C(=S)NC(CCCc2ccccc2)C(N)=O)cc1 (single isomer, unassigned) [compound 170]	6 ± 0.05	5 ± 0.04	2 ± 0.16	0	0
CCc1cc(OC)ccc1-c1ccc(CC(CNC(CCCc2ccccc2F)C(N)=O)NC(=O)[C@H](CC(=O)O)NC(=O)[C@H](CO)NC(=O)[C@@H](NC(=O)C(C)(Cc2ccccc2F)NC(=O)[C@@H](NC(=O)CNC(=O)[C@H](CCC(N)=O)NC(=O)C(C)(C)NC(=O)[C@H](Cc2c[nH]cn2)NC(=O)OC)[C@H](C)O)[C@H](C)O)cc1 (single isomer, unassigned) [compound 188]	5 ± 0.04	3 ± 0.15	1 ± 0.15	0	0
CCc1cc(OC)ccc1-c1ccc(CC(CNC(CCCc2ccccc2F)C(N)=O)NC[C@H](CC(=O)O)NC(=O)[C@H](CO)NC(=O)[C@@H](NC(=O)C(C)(Cc2ccccc2F)NC(=O)[C@@H](NC(=O)CNC(=O)[C@H](CCC(N)=O)NC(=O)C(C)(C)NC(=O)[C@H](Cc2c[nH]cn2)NC(C)=O)[C@H](C)O)[C@H](C)O)cc1 (single isomer, unassigned) [compound 199]	4 ± 0.06	3 ± 0.11	0	0	0
CCc1cc(OC)ccc1-c1ccc(CC(NC(=O)[C@H](CC(=O)O)NC(=O)[C@H](CO)NC(=O)[C@@H](NC(=O)[C@H](Cc2ccccc2)NC(=O)[C@@H](NC(=O)CNC(=O)[C@H](CCC(N)=O)NC(=O)C2(C)CCCN2C(=O)[C@@H](N)Cc2c[nH]cn2)[C@@H](C)O)[C@@H](C)O)C(=O)NC(CCCc2ccccc2)C(N)=O)cc1 (some centres unmarked) [compound 9] (H-H[ξαMeP]QGTFTSD[ξBip(2'-Et-4'-OMe)][ξhhPhe]-NH2)	5 ± 0.02	3 ± 0.15	0	0	0
CCc1cc(OC)ccc1-c1ccc(CC(NC(=O)[C@H](CC(=O)O)NC(=O)[C@H](CO)NC(=O)[C@@H](NC(=O)[C@H](Cc2ccccc2)NC(=O)[C@@H](NC(=O)CNC(=O)[C@H](CCC(N)=O)NC(=O)[C@H](CO)NC(=O)[C@@H](N)Cc2c[nH]cn2)[C@@H](C)O)[C@@H](C)O)C(=O)NC(CCCc2ccc(Cl)cc2Cl)C(N)=O)cc1 (some centres unmarked) [compound 51] (H-HSQGTFTSD[ξBip(2'-Et-4'-OMe)][X6]-NH2)	5 ± 0.09	3 ± 0.11	0	0	0
CCc1cc(OC)ccc1-c1ccc(CC(C(=O)N(C)C(CCCc2ccccc2)C(N)=O)N(C)C(=O)[C@H](CC(=O)O)N(C)C(=O)[C@H](CO)NC(=O)[C@@H](NC(=O)C(C)(Cc2ccccc2F)NC(=O)[C@@H](NC(=O)CNC(=O)[C@H](CCC(N)=O)NC(=O)C(C)(C)NC(=O)[C@H](Cc2c[nH]cn2)NC(=O)OC)[C@H](C)O)[C@H](C)O)cc1 (some centres unmarked) [compound 150] (Moc-H[Aib]QG[aThr][ξαMePhe(2-F)][aThr]S[NMeD][ξNMeBip(2'-Et,4'-OMe)][X11]-NH2)	10 ± 0.12	8 ± 0.02	6 ± 0.04	4 ± 0.05	1 ± 0.02
CCc1cc(OC)ccc1-c1ccc(CC(NC(=S)[C@H](CC(=O)O)NC(=O)[C@H](CO)NC(=O)[C@@H](NC(=O)C(C)(Cc2ccccc2F)NC(=O)[C@@H](NC(=O)CNC(=O)[C@H](CCC(N)=O)NC(=O)C(C)(C)NC(=O)[C@H](Cc2c[nH]cn2)NC(=O)OC)[C@@H](C)O)[C@@H](C)O)C(=S)NC(CCCc2ccccc2F)C(N)=O)cc1 (some centres unmarked) [compound 172] (Moc-H[Aib]QGT[ξαMePhe(2-F)]TS-X9)	4 ± 0.16	2 ± 0.11	0	0	0
